The text below walks through data of patent US4540428A (priority 1983, dated 1985).

For experiment [1], the system named is soil urease. The experiment is classed as biochemical. To be noted: for % Inhibition 40 microgram per gram soil: pH 7.2.
The test system of experiment [2] is soil urease. Put plainly: Urea hydrolyzed as a function of time in soil at 35° C. (procedure of Example VI, FIG. 1). The experiment is classed as biochemical. To be noted: 10 micrograms of urease inhibitor per gram of soil; for urease inhibiting activity at 35° C. (in words): soil at 35° C. (95° F.), period of 12 days, sampled every two days. The method, then:
The drawing is a graph of urea hydrolyzed as a function of time at 35° C. using 10 micrograms of urease inhibitor per gram of soil.
Certain compounds were evaluated to determine their effectiveness as urease inhibitors. The inhibition tests were run in a New York State soil (Cazenovia sandy loam, pH 7.2). Evaluations (run in triplicate) consisted of applying 800 micrograms of test compound in 5 mL of water and 42.8 mg urea in 1 mL of water to 20 g of air-dry soil in a glass bottle. The bottle was capped with perforated aluminum foil and incubated at 25° C. for 3 days prior to extraction with 100 mL of 2M KCl solution containing 0.5 mg of phenylmercuric acetate. The extracts were then analyzed for remaining urea using an autoanalyzer. Percent inhibition was calculated as [formula] where A is urea recovered from unincubated sample (urea added to soil and immediately extracted); B is urea recovered from inhibited sample; and C is urea recovered from the control (uninhibited sample).
Employing the procedure of Example VI, the urease inhibiting activity at 35° C. of the prior art urease inhibitor, phenyl phosphorodiamidate, and N-(2-chloroethyl)phosphoric triamide were evaluated. In the evaluation, soil samples were taken every two days and analyzed for urea content.

For another experiment, the system named is urease. The settings on record: stated as well known; cited from earlier work.

In the case of `NP(N)(=O)NCCCl` [Experiment 1], in the experiment with soil urease [1], the “% Inhibition 1 microgram per gram soil” value stood at 77% and the “% Inhibition 40 microgram per gram soil” value turned out to be 100%.
Regarding `NP(N)(=O)Oc1ccccc1` [phenyl phosphorodiamidate], the “urease inhibiting activity at 35° C. (in words)” value with soil urease [2] is recorded as “much less effective”. For the same molecule, in the experiment on soil urease [2] (soil at 35° C.), the “time to essentially complete urea hydrolysis” value was “essentially complete urea hydrolysis after only six days”. For the same molecule, the “inhibitory effect on urease at 25° C. (in words)” value in the experiment with urease is given as “excellent inhibitory effect”.
Consider `NP(N)(=O)NCCCl` [Experiment 1, N-2-Chloroethyl Phosphoric Triamide], for which the “urease inhibiting activity at 35° C. (in words)” value in the experiment on soil urease [2] was “excellent inhibitor”.
`NP(N)(=O)NCCCBr` [Experiment 3]: in the experiment with soil urease [1], the “% Inhibition 1 microgram per gram soil” value came out at 83% and the “% Inhibition 40 microgram per gram soil” value stood at 99%.
